From patent US20160228575A1, “NARINGENIN COMPLEXES AND METHODS OF USE THEREOF” (THE GENERAL HOSPITAL CORPORATION, priority 2008, published 2016)

Legend:
[1] = 400 mg/day oral, hypercholesterolemic patients; cited from earlier work
[2] = system: HCV (JFH-1) secreted by infected Huh-7.5.1 cells; experiment: HCV secretion by JFH-1 infected Huh-7.5.1 cells (HCV core antigen ELISA, HCV positive strand RNA qPCR); format: cell-based, Hepatitis C virus
Protocol: The Huh-7.5.1 human hepatoma cell line and a plasmid containing the JFH-1 genome were kindly provided by Dr. Chisari (Scripps Research Institute, CA) and Dr. Wakita (National Institute of Infectious Diseases, Tokyo) respectively. Huh-7.5.1 cells were cultured in DMEM medium supplemented with 10% FBS, 200 units/ml penicillin and […] streptomycin in a 5% CO2-humidified incubator at 37° C. In vitro transcribed genomic JFH-1 RNA was delivered to cells by liposome-mediated transfection as described by Zhong et al. (2005)(8). Infected Huh-7.5.1 cells were passaged every 3 days and used at passage <15. The presence of HCV in these cells and corresponding supernatants were determined by quantitative Polymerase Chain Reaction (qPCR) and immunofluorescence staining. Primary human hepatocytes were purchased from BD Biosciences (San Jose, Calif.) cultured on a collagen-coated 12 well plate in C+H culture media composed of DMEM supplemented with 10% heat-inactivated FBS, 200 U/mL penicillin/streptomycin, 7.5 μg/mL hydrocortisone, 20 ng/mL EGF, 14 ng/mL glucagons and 0.5 U/mL insulin. The media was supplemented with 2% DMSO for long-term culture of the primary cells.
(§1) HCV-infected Huh-7.5.1 cells were plated on a 6-well plate at a density of 1×10^5 cells/cm^2 and cultured overnight in standard medium. Prior to the beginning of the experiment, the cells were washed 3 times with PBS and cultured with DMEM containing 5% lipoprotein-free FBS. Oleate, Insulin, Naringenin, and Brefeldin A were added at this time as described in the text. Following 24 hours of incubation, the plate was gently agitated to release mechanically bound particles, the media was collected, filtered to remove cellular debris, and stored at −80° C. for further analysis. The attached cells were washed 3 times with PBS, harvested, pelleted and stored at −80° C. for further analysis.
Huh-7.5.1 secreted HCV core antigen was detected in the media using Wako Chemicals (Cambridge, Mass.) ORTHO HCV antigen ELISA kit. Media was used as is, and the assay was carried out according to manufacturer's directions.
(§2) Virus samples collected in each experiment were filtered with a 0.45 μm filter and a volume of 100 μL for each sample was heated at 95° C. for 45 min. The reverse transcription reaction step was performed on a Mastercycler epgrdientS (Eppendorf) instrument using Omniscript and Sensiscript RT Kits (Qiagen). Real time PCR was performed on a Light Cycler LC-24 (Idaho Technology), using SuperScript™ III Platinum® CellsDirect Two-Step qRT-PCR Kits (Invitrogen) for quantitative PCR. For reverse transcription step, 2 μL of sample without RNA extraction were used. For real time PCR, 1 μL of the reverse transcription reactions was used. All reactions were performed according to the manufacturer's instructions using the primers detailed in Table 1.
However, this experiment was carried out on cells continuously producing the virus. Long-term treatment could potentially have a greater effect. […] This treatment is compared to the current standard-of-care, 1000 i.u. of Interferon α (IFNα). Both treatments lowered HCV RNA to a similar level, 96±5% and 93±5% respectively.

[3] = system: HCV (JFH-1) in Huh-7.5.1 cells; experiment: Intracellular HCV RNA and core protein in infected Huh-7.5.1 cells; format: cell-based, Hepatitis C virus
Protocol: as §1, §2
Huh-7.5.1 cells were washed 3 times with PBS and fixed in 4% EM-grade paraformaldehyde for 10 minutes at room temperature. Slides were then washed with PBS and incubated in 100 mmol/L glycine for 15 minutes to saturate reactive groups. Samples were permeabilized for 15 minutes with 0.1% Triton X-100, blocked for 30 minutes with 1% bovine serum albumin and 5% donkey serum at room temperature, and stained with primary antibodies overnight at 4° C. After additional washes with PBS, samples were stained with fluorescently tagged secondary antibodies for 45 minutes at room temperature.

ApoB = ApoB secretion by JFH-1 infected Huh-7.5.1 cells (human ApoB ELISA); format: cell-based; settings: 24 hours, brefeldin A 2.5 μg/ml
Protocol: as §1
Huh-7.5.1 and primary human hepatocytes secreted ApoB was detected in the media using ALerCHEK, Inc (Portland, Me.) total human ApoB ELISA kit. Media was diluted 1:10 with the specimen diluent, and the assay was carried out according to manufacturer's directions.
HCV-infected Huh-7.5.1 cells were plated T-25 tissue culture flasks at a density of 1×10^5 cells/cm^2 and cultured overnight in standard medium. Prior to silencing, the cells were washed 3 times with PBS and media was replaced with OptiMEM basal medium. SureSilencing shRNA (GFP) plasmids against human ApoB100 as well as shRNA plasmid control (500 ng/ml) were combined with lipofectamine 2000 in OptiMEM and incubated with the cells overnight. SureSilencing shRNA plasmids code for GFP which was used to sort the transfected Huh7.5.1 cells, using FACSAria (BD Biosciences) located at the Partners AIDS Research Center. Transfected cells (10% of the total population) were sorted directly into a 12-well plate and allowed to adhere overnight. Culture media was conditioned by the transfected cells for 24 hours and analyzed as described above.

[4] = system: HCV (JFH-1) infection of naïve Huh7.5.1 cells; experiment: HCV infectivity of cell culture supernatant on naïve Huh7.5.1 cells; format: cell-based, Hepatitis C virus
Protocol: The infectivity of the secreted HCV particles was measured as previously described (8). Naïve Huh7.5.1 cells were grown to 80% confluence and exposed to cell culture supernatants diluted 10-fold in culture media. Following 1 hour incubation at 37° C., the media was replaced, and the cells were cultured for 3 additional days. Levels of HCV infection were determined by immunofluorescence staining for HCV core protein. The viral titer is expressed as focus forming units per milliliter of supernatant (ffu/ml).

[5] = 24 hours, brefeldin A 2.5 μg/ml

Q: With `C[C@@H]1O[C@@H](O[C@H]2[C@H](Oc3cc(O)c4c(c3)O[C@H](c3ccc(O)cc3)CC4=O)O[C@H](CO)[C@@H](O)[C@@H]2O)[C@H](O)[C@H](O)[C@H]1O` [naringin, reference compound] as the compound, how does the “lowering of LDL levels” value [1] read?
A: The value was 17%.

Q: Which “HCV core protein secretion (in words)” value [2, 5] does the source give for “insulin: insulin obtained from Eli-Lilly [reference compound]” here?
A: The value was “downregulated”.

Q: What about the “intracellular levels of HCV (positive strand) RNA” value ([3]; 24 hours stimulation) of the same compound?
A: Its value is “remained unchanged”.

Q: What about the “ApoB secretion (in words)” value (ApoB) of the same compound?
A: Its value is “downregulated”.

Q: And the “infectivity of the cell supernatant (in words)” value ([4]; supernatant of stimulated infected Huh-7.5.1 cells)?
A: The value was “decreased”.

Q: Which results are given for IFNα [reference compound]?
A: inhibition of HCV (RNA) secretion, long-term treatment ([2]; long-term daily treatment of infected Huh7.5.1 cells, naringenin 200 μM, IFNα 1000 i.u.): 93±5%; HCV replication (intracellular HCV RNA), long-term treatment ([3]; long-term treatment, naringenin 200 μM, IFNα 1000 i.u.): inhibited

Q: With `C[C@H]1CCC/C=C/[C@@H]2C[C@H](O)C[C@H]2[C@H](O)/C=C/C(=O)O1` [brefeldin A, reference compound] as the compound, how does the “HCV core protein secretion (in words)” value [2, 5] read?
A: The value was “significantly inhibits”.

Q: And the “HCV positive strand RNA secretion (in words)” value [2, 5]?
A: The value was “significantly inhibits”.

Q: And the “ApoB secretion (in words)” value (ApoB)?
A: Its value is “blocked”.

Q: What about the “inhibition of infectivity of the cell supernatant” value ([4]; supernatant after 24 hours stimulation, naringenin 200 μM, brefeldin A 2.5 μg/ml) of the same compound?
A: The value was 89%±10%.
